Test results taken from the NIST ThermoML archive (doi:10.1016/j.fluid.2018.09.026).
Values joined by “and” are separate entries in the source; they are usually repeats but may differ in a detail not shown here. Equal values may be shown once.

Conditions: Liquid; for mass density: Vibrating tube method; for viscosity: Vibrating wire viscometry

OCCOCCO [diethylene glycol]
Conditions | mass density | viscosity
303.15 K, 63850 kPa | 1134.9 kg/m3 | –
303.15 K, 68760 kPa | 1136.6 kg/m3 | –
303.27 K, 180 kPa | – | 21.44 mPa·s [middle of 5 runs]
303.27 K, 190 kPa | – | 21.49 mPa·s
303.27 K, 1070 kPa | – | 21.42 mPa·s
303.27 K, 1080 kPa | – | 21.42 mPa·s and 21.5 mPa·s and 21.48 mPa·s
303.27 K, 2100 kPa | – | 21.72 mPa·s and 21.69 mPa·s
303.27 K, 5160 kPa | – | 22.14 mPa·s and 22.35 mPa·s and 22.13 mPa·s
303.27 K, 5170 kPa | – | 22.08 mPa·s
303.27 K, 10180 kPa | – | 22.97 mPa·s
303.27 K, 10190 kPa | – | 23.05 mPa·s and 23.2 mPa·s and 23 mPa·s
303.27 K, 20040 kPa | – | 24.7 mPa·s and 25.05 mPa·s and 24.87 mPa·s
303.27 K, 30920 kPa | – | 26.77 mPa·s [middle of 5 runs]
303.27 K, 40100 kPa | – | 28.49 mPa·s [middle of 5 runs]
303.27 K, 50040 kPa | – | 30.4 mPa·s
303.27 K, 50050 kPa | – | 30.52 mPa·s and 30.43 mPa·s
303.27 K, 50060 kPa | – | 30.59 mPa·s
303.27 K, 50070 kPa | – | 30.49 mPa·s
303.27 K, 68860 kPa | – | 34.35 mPa·s
303.27 K, 68920 kPa | – | 34.55 mPa·s
303.27 K, 69030 kPa | – | 34.74 mPa·s
303.27 K, 69090 kPa | – | 34.81 mPa·s
313.15 K, 100 kPa | 1101.7 kg/m3 and 1101.6 kg/m3 | –
313.15 K, 640 kPa | 1101.8 kg/m3 | –
313.15 K, 1140 kPa | 1102.1 kg/m3 | –
313.15 K, 1640 kPa | 1102.3 kg/m3 | –
313.15 K, 2100 kPa | 1102.5 kg/m3 | –
313.15 K, 3090 kPa | 1103 kg/m3 | –
313.15 K, 5130 kPa | 1103.9 kg/m3 | –
313.15 K, 6960 kPa | 1104.8 kg/m3 | –
313.15 K, 9960 kPa | 1106.1 kg/m3 | –
313.15 K, 14940 kPa | 1108.4 kg/m3 | –
313.15 K, 19750 kPa | 1110.6 kg/m3 | –
313.15 K, 24640 kPa | 1112.7 kg/m3 | –
313.15 K, 29640 kPa | 1114.8 kg/m3 | –
313.15 K, 34510 kPa | 1116.9 kg/m3 | –
313.15 K, 39340 kPa | 1118.9 kg/m3 | –
313.15 K, 44340 kPa | 1120.9 kg/m3 | –
313.15 K, 49190 kPa | 1123.2 kg/m3 | –
313.15 K, 54020 kPa | 1124.7 kg/m3 | –
313.15 K, 59030 kPa | 1126.7 kg/m3 | –
313.15 K, 63880 kPa | 1128.5 kg/m3 | –
313.15 K, 68820 kPa | 1130.3 kg/m3 | –
313.38 K, 200 kPa | – | 14.25 mPa·s and 14.24 mPa·s and 14.26 mPa·s
313.38 K, 210 kPa | – | 14.23 mPa·s [middle of 5 runs]
313.38 K, 1170 kPa | – | 14.28 mPa·s and 14.27 mPa·s
313.38 K, 1180 kPa | – | 14.33 mPa·s
313.38 K, 2300 kPa | – | 14.28 mPa·s
313.38 K, 2310 kPa | – | 14.5 mPa·s
313.38 K, 2320 kPa | – | 14.38 mPa·s
313.38 K, 5060 kPa | – | 14.69 mPa·s and 14.72 mPa·s
313.38 K, 5070 kPa | – | 14.63 mPa·s and 14.65 mPa·s
313.38 K, 5080 kPa | – | 14.64 mPa·s
313.38 K, 10280 kPa | – | 15.26 mPa·s
313.38 K, 10290 kPa | – | 15.13 mPa·s
313.38 K, 10300 kPa | – | 15.2 mPa·s
313.38 K, 20100 kPa | – | 16.33 mPa·s
313.38 K, 20110 kPa | – | 16.16 mPa·s and 16.17 mPa·s
313.38 K, 30110 kPa | – | 17.27 mPa·s and 17.34 mPa·s and 17.33 mPa·s
313.38 K, 40110 kPa | – | 18.5 mPa·s [middle of 4 runs]
313.38 K, 50110 kPa | – | 19.66 mPa·s and 19.68 mPa·s
313.38 K, 50120 kPa | – | 19.64 mPa·s
313.38 K, 50130 kPa | – | 19.61 mPa·s
313.38 K, 69490 kPa | – | 22.11 mPa·s
313.38 K, 69530 kPa | – | 22.04 mPa·s
313.38 K, 69580 kPa | – | 21.98 mPa·s
323.15 K, 100 kPa | 1094.3 kg/m3 | –
323.15 K, 680 kPa | 1094.6 kg/m3 | –
323.15 K, 1130 kPa | 1094.8 kg/m3 | –
323.15 K, 1570 kPa | 1095 kg/m3 | –
323.15 K, 2100 kPa | 1095.2 kg/m3 | –
323.15 K, 3080 kPa | 1095.7 kg/m3 | –
323.15 K, 5080 kPa | 1096.7 kg/m3 | –
323.15 K, 7000 kPa | 1097.6 kg/m3 | –
323.15 K, 9950 kPa | 1099 kg/m3 | –
323.15 K, 14890 kPa | 1101.4 kg/m3 | –
